Data from patent US12678515B2, “Lipids and lipid nanoparticle formulations for delivery of nucleic acids” (Acuitas Therapeutics, Inc., priority 2015, dated 2026).

Tested on: luciferase expression in the liver
Assay: In vivo luciferase mRNA expression rodent model (lipid nanoparticle formulations of cationic lipids)
Design: species or system mice
Conditions: luciferase expression in liver 4 hours after tail vein injection; LNP 50% cationic lipid/10% DSPC/38.5% cholesterol/1.5% PEG-DMA; MC3 activity=1
Procedure: Cationic lipid (MC3), DSPC, cholesterol and PEG-lipid were solubilized in ethanol at a molar ratio of 50:10:38.5:1.5. Lipid nanoparticles (LNP) were prepared at a total lipid to mRNA weight ratio of approximately 10:1 to 30:1. Briefly, the mRNA was diluted to 0.2 mg/mL in 10 to 50 mM citrate buffer, pH 4. Syringe pumps were used to mix the ethanolic lipid solution with the mRNA aqueous solution at a ratio of about 1:5 to 1:3 (vol/vol) with total flow rates above 15 mL/min. The ethanol was then removed and the external buffer replaced with PBS by dialysis. Finally, the lipid nanoparticles were filtered through a 0.2 μm pore sterile filter. Lipid nanoparticle particle size was approximately 55-95 nm diameter, and in some instances approximately 70-90 nm diameter as determined by quasi-elastic light scattering using a Malvern Zetasizer Nano ZS (Malvern, UK) or by using a Nicomp 370 submicron particle sizer (Santa Barbara, CA).
Studies were performed in 6-8 week old female C57BL/6 mice (Charles River) 8-10 week old CD-1 (Harlan) mice (Charles River) according to guidelines established by an institutional animal care committee (ACC) and the Canadian Council on Animal Care (CCAC). Varying doses of mRNA-lipid nanoparticle were systemically administered by tail vein injection and animals euthanized at specific time points (1, 2, 4, 8 and 24 hrs) post-administration. Liver and spleen were collected in pre-weighed tubes, weights determined, immediately snap frozen in liquid nitrogen and stored at −80° C. until processing for analysis.
For liver, approximately 50 mg was dissected for analyses in a 2 mL FastPrep tubes (MP Biomedicals, Solon OH). ¼″ ceramic sphere (MP Biomedicals) was added to each tube and 500 μL of Glo Lysis Buffer—GLB (Promega, Madison WI) equilibrated to room temperature was added to liver tissue. Liver tissues were homogenized with the FastPrep24 instrument (MP Biomedicals) at 2×6.0 m/s for 15 seconds. Homogenate was incubated at room temperature for 5 minutes prior to a 1:4 dilution in GLB and assessed using SteadyGlo Luciferase assay system (Promega). Specifically, 50 μL of diluted tissue homogenate was reacted with 50 μL of SteadyGlo substrate, shaken for 10 seconds followed by 5 minute incubation and then quantitated using a CentroXS^3 LB 960 luminometer (Berthold Technologies, Germany). The amount of protein assayed was determined by using the BCA protein assay kit (Pierce, Rockford IL). Relative luminescence units (RLU) were then normalized to total μg protein assayed. To convert RLU to ng luciferase a standard curve was generated with QuantiLum Recombinant Luciferase (Promega). Based on the data provided in FIG. 1, the four-hour time point was chosen for efficacy evaluation of the lipid formulations (see Example 3). […]

CCCCCCCCC(CCCCCC)C(=O)OCCCCCCCCCC(CCCCCCCCCOC(=O)C(CCCCCC)CCCCCCCC)OC(=O)CCCN(C)C (stereo not shown) [Compound 1, 10-{[4′-(dimethylamino)butanoyl]oxy}-19-[(2-hexyldecanoyl)oxy]nonadecyl 2-hexyldecanoate]
Activity Relative to MC3: ~2

CCCCCCCCC(CCCCCC)COC(=O)CCCCCCCCCCCC(CCCCCCCCCCCC(=O)OCC(CCCCCC)CCCCCCCC)OC(=O)CCCN(C)C (stereo not shown) [Compound 2, 1,25-di-(2′-hexyldecyl)13-{[4-(dimethylamino)butanoyl]oxy}pentacosanedioate]
Activity Relative to MC3: ~0.75

CCCCCCCCC(CCCCCC)C(=O)OCCCCCCCCCC(CCCCCCCCCOC(=O)C(CCCCCC)CCCCCCCC)OC(=O)CCCCN(C)C (stereo not shown) [Compound 3, 10-{[5-(dimethylamino)pentanoyl]oxy}-19-[(2-hexyldecanoyl)oxy]nonadecyl 2-hexyldecanoate]
Activity Relative to MC3: ~8

CCCCC/C=C\C/C=C\CCCCCCCCC(CCCCCCCC/C=C\C/C=C\CCCCC)OC(=O)CCCN(C)C [MC3, reference compound]
Activity Relative to MC3: 1
